From paper PMC4859512, “Polyamino-Isoprenic Derivatives Block Intrinsic Resistance of P. aeruginosa to Doxycycline and Chloramphenicol In Vitro” (PLoS ONE, 2016) come the findings set out here.

The test system of series [1] is P. aeruginosa PA01 (wt). Put plainly: Antibiotic susceptibility testing (broth micro-dilution MIC), strain PA01. The format is cell-based, Pseudomonas aeruginosa. The following applies: Pseudomonas aeruginosa, read-out: Minimal Inhibitory Concentration. On the procedure: (§1) Experiments were performed on the BAC-SCREEN platform of the UMR-MD1, with a Freedom EVO 150 liquid handling system (Tecan, Lyon, France).
(§2) The same experiment was performed using chloramphenicol (4 mg/L) in combination with 3 (10 μM final concentration). […] These experiments were performed to study the effect of our compounds on the natural resistance of P. aeruginosa. […] Experiments were performed with the ß-lactams ceftazidime and ticarcillin and ciprofloxacin and amikacin.
A general note: Broth dilution looks for growth in wells or tubes with falling amounts of substance.

For series [2], the system named is P. aeruginosa PT629 (Mex AB overproducer). Put plainly: Antibiotic susceptibility testing (broth micro-dilution MIC), strain PT629. It is filed as cell-based, Pseudomonas aeruginosa. The following applies: Pseudomonas aeruginosa, read-out: Minimal Inhibitory Concentration. On the procedure: as §1
(§3) We concluded that compound 3 was the best compound and suitable for a more detailed study. The same experiment was performed using chloramphenicol (4 mg/L) in combination with 3 (10 μM final concentration). Amongst the 20 clinical isolates, the growth of 15 (75%) was impaired, while 5 (25%) were resistant (data not shown). These experiments were performed to study the effect of our compounds on the natural resistance of P. aeruginosa. In addition, we were wondering if compound 3 could also increase susceptibility to other antibiotic families including ß-Lactams, fluoroquinolones and aminoglycosides, that are representative of the main classes of anti-pseudomonal agents. Experiments were performed with the ß-lactams ceftazidime and ticarcillin and ciprofloxacin and amikacin. […] . […] To better characterize compound 3, we first searched for the minimum concentration of compound that allowed killing of bacteria by doxycycline, and PAßN was used as the reference molecule.

For series [3], the system named is P. aeruginosa PA01 ERY^R (Mex CD overproducer). In words: microbe, parasite or virus in culture. The conditions noted are these: Pseudomonas aeruginosa, read-out: Minimal Inhibitory Concentration. The format is cell-based, Pseudomonas aeruginosa. The protocol: as §1, §2
Series [4] deals with P. aeruginosa PA0-7H (Mex EF overproducer). Put plainly: Antibiotic susceptibility testing (broth micro-dilution MIC), strain PA0-7H. It is filed as cell-based, Pseudomonas aeruginosa. The conditions noted are these: Pseudomonas aeruginosa, read-out: Minimal Inhibitory Concentration. The protocol:
as §1, §3

Series [5] deals with P. aeruginosa CMZ091 (Mex XY overproducer). In words: Antibiotic susceptibility testing (broth micro-dilution MIC), strain CMZ091. The conditions noted are these: Pseudomonas aeruginosa, read-out: Minimal Inhibitory Concentration. It is filed as cell-based, Pseudomonas aeruginosa. The protocol: as §1, §3
Series [6] concerns P. aeruginosa FB1 (Mex B deleted). Put plainly: Antibiotic susceptibility testing (broth micro-dilution MIC), strain FB1. It is filed as cell-based. The following applies: Pseudomonas aeruginosa, read-out: Minimal Inhibitory Concentration. The protocol: as §1
Series [7] concerns twenty clinical isolates of P. aeruginosa. In words: Combined antibiotic / polyamino-isoprenic derivative on MH agar plates, clinical isolates. The following applies: doxycycline 2 mg/L + compound 10 μM; 20 clinical isolates. It is filed as cell-based, Pseudomonas aeruginosa. The protocol: MH agar plates were prepared, containing 2 mg/L doxycycline and 2 mg/L doxycycline in combination with compounds at a concentration of 10 μM. Bacteria, 5 μL of a suspension of each clinical isolate adjusted to 5 x 10^5 colony-forming units per ml were spotted on each plate and growth was monitored after a 18 h period of incubation at 37°C.
PA01 is a well-studied reference strain of P. aeruginosa, however to extend our study we considered strains recently isolated from hospitalized patients. Thus, we decided to test this combination of doxycycline (2mg/L) with polyamino-isoprenic compounds (10 μM) on twenty clinical isolates recently isolated from the HIA-Laveran (see M&M section and S1 Table).

Series [8] relates to CHO-K1 cells. Put plainly: cells. The conditions noted are these: for IC50: Cricetulus griseus, CHO-K1, WST1, 24 h, mean +/- SD, 2 independent experiments. The format is cell-based, Chinese Hamster. The protocol:
(§4) CHO-K1 cells (ATCC-LGC Standards Sarl (Molsheim, France) and human fibroblasts (Clinisciences, Paris, France) were maintained in McCoy’s 5A and DMEM media, respectively, supplemented with 10% bovine calf serum, 2 mM glutamine, and 100 U/mL/10 μg/mL penicillin/streptomycin. They were incubated at 37°C in a humidified atmosphere containing 5% CO2. The cell lines were seeded in 96-well plates and incubated overnight. The cytotoxic effects of compounds were assessed by the colorimetric WST-1 cell proliferation assay as previously described. Briefly, a range of compound concentrations from 30 μM to 1200 μM was added to triplicate cultures, and cells were incubated at 37°C for 24 h. At the end of the incubation period, cultures were washed three times with phosphate buffer saline (PBS) and incubated in fresh culture medium containing 10% WST-1 for an additional 30 min. Cell viability was evaluated by measuring the WST-1 absorbance at 450 nm in a microplate spectrophotometer MRX1 II (Dynex technologies, Chantilly, VA, USA). The Inhibitory Concentration 50% (IC50) was chosen to evaluate the cytotoxicity of compounds. IC50 was defined as the concentration of a compound that induced a 50% decrease in viable cells. Doxorubicin was used as a positive control.
Background: Formazan colour is commonly taken as a measure of viable cells.

Series [9] relates to human fibroblasts. Put plainly: WST-1 cytotoxicity test, fibroblasts. The format is cell-based. The following applies: for IC50: Homo sapiens, Fibroblast, WST1, 24 h, mean +/- SD, 2 independent experiments. The protocol: as §4
Series [10] deals with P. aeruginosa PA01 reference strain. In words: High-content screening in the presence of doxycycline. The following applies: compound 10 μM, sub-inhibitory doxycycline.
Experimental: The screening was carried out in 96-well microtiter plates using MHBII, in a final volume of 200 μL. […] The bacterial inoculum of 5×10^5 CFU/mL was prepared from an overnight culture. In addition to the polyamino-isoprenic compounds, each plate contained PAßN, CCCP, CTAB, polymyxin-B and benzalkonium chloride as control molecules. Plates were incubated at 37°C under aerobic conditions for 18 hours. Plates were read at 600 nm on an Infinite M200 Pro plate reader (Tecan).
A series of 60 compounds, which were described [18], were tested at a concentration of 10 μM in combination with a sub-inhibitory concentration of doxycycline against the reference strain of P. aeruginosa PA01. In parallel, we evaluated the intrinsic antimicrobial activity of these compounds alone to allow the selection of only doxycycline adjuvants.
In series [11] the test system is Enterobacteriaceae. Put plainly: Same type of combination assay against Enterobacteriaceae (data not shown). It is filed as cell-based.
Series [12] has as its system efflux of 1,2'-dinaphthylamine in strain PA01. Put plainly: Real-time efflux assay (1,2'-dinaphthylamine, glucose-triggered). The format is cell-based, Pseudomonas aeruginosa. On the procedure: The experiments were performed as previously described with slight modifications. For each strain, 20 mL of MHII was inoculated with a single colony from a fresh plate and grown at 37°C to the stationary phase. […] They were then loaded over night with the dye 1,2’-dinaphthylamine (TCI-Europe SA, Zwijndrecht, Belgium) at a final concentration of 32 μM, in the presence of 5 μM CCCP. […] In a 96-well Greiner black microplate (Greiner, Courtaboeuf, France), a gradient of inhibitor (when used) was prepared in PPB, and bacteria were added (100 μL per well). The fluorescence of the cell suspension, was monitored each 22 sec during 1200 sec on an Infinite M200 microplate reader (Tecan; excitation wavelength 370 nm and emission wavelength 420 nm). In order to trigger the transport, glucose (50 mM final concentration) is added at 200 sec. The maximum efficacy of the efflux is the difference between the value obtained without and with glucose addition after 1200 sec. For each compound, the efficiency of efflux inhibition is calculated as the difference between the maximum efficacy of transport and the residual transport obtained at various concentrations of the compound.

Series [13] concerns outer membrane of P. aeruginosa PA01. Put plainly: Outer membrane permeation assay (nitrocefin hydrolysis). The following applies: compound at 125μM, relative to 250 μM polymyxin-B.
Experimental: An overnight culture of PA01 was diluted 100-fold into 10 ml MHII broth containing 0.01 μg/ml of imipenem to induce a higher level of β-lactamases. […] Absorbance at 490 nm was monitored by spectrophotometry using an Infinite M200 microplate reader (Tecan) over 60 min. Experiments were performed in triplicate.

The IC50 is the concentration at which inhibition is half-maximal. The low end stands for higher potency, the high end for lower potency.

Where “and” joins values, the source holds several entries; their conditions need not be identical. Identical values can stand only once.

On to `CC(C)=CCCC(C)=CCNCCCNCCCCNCCCN` [Compound 1], for which the MIC in series [1] is > 85 µg/mL and > 250 µM; in series [2] it was > 85 µg/mL and > 250 µM; in series [3], > 85 µg/mL and > 250 µM; in [4] it was 85 µg/mL and 250 µM; in series [5] it was 85 µg/mL and 250 µM; in [6], 85 µg/mL and 250 µM. In addition, the “isolates with doxycycline susceptibility restored” value (“isolates” below) in series [7] came to 27%. Further, the “cytotoxicity value compared with the positive control doxorubicin” value is 20 times in series [8] (Chinese hamster, 24 h) and 10 times in series [9] (human fibroblasts). Moreover, the IC50 came to 808 ± 68.1 µM in series [8] and 138 ± 18.6 µM in [9]. The “synergy with doxycycline in screening” value in series [10] is “did not show any significant synergy”.
For the molecule `CC(C)=CCCC(C)=CCNCCCN(CCCN)CCCN` [Compound 2], the MIC was > 81 µg/mL and > 250 µM in series [1]; > 81 µg/mL and > 250 µM in series [2]; > 81 µg/mL and > 250 µM in series [3]; > 81 µg/mL and > 250 µM in series [4]; > 81 µg/mL and > 250 µM in series [5]; > 81 µg/mL and > 250 µM in series [6]. Further, in series [7], the “isolates” value is 6%. In series [8], this molecule displayed an IC50 of 236 ± 28.9 µM. Also, in series [11], the “rank of potency against Enterobacteriaceae” value is reported as “the most potent”.
Consider `CC(C)=CCCC(C)=CCCC(C)=CCNCCCN(CCCN)CCCN` [Compound 4], for which the MIC in [1] is 49 µg/mL and 125 µM; in [2], 49 µg/mL and 125 µM; in [3], 25 µg/mL and 62.5 µM; in series [4], 49 µg/mL and 125 µM; in series [5] it was 49 µg/mL and 125 µM; in [6], 49 µg/mL and 125 µM. For the same molecule, in series [7], the “isolates” value came to 88%. Moreover, the IC50 in [8] stood at 363 ± 20.3 µM; in series [9] it was 136 ± 7.9 µM.
“polymyxin-B nonapeptide [PMBN, reference compound]”: the efflux inhibition entry is “quite inefficient” in series [12] (compound at 31.25μM) and 30% in [12] (compound at 125μM). Besides, the “outer membrane permeation activity” value in series [13] is recorded as 10%.
